Data reported in patent US6448399B1, “Fused heteroaromatic glucokinase activators” (Hoffmann-La Roche Inc., priority 2000, dated 2002).

Tested on: C57BL/6J mice
Assay: Glucokinase activator in vivo screen (blood glucose after oral dosing)
Details: administered orally, 50 mg/kg, active = significant (p≦0.05) decrease in blood glucose vs vehicle at two consecutive time points
Experimental: Glucokinase Activator in vivo Screen Protocol
C57BL/6J mice are orally dosed via gavage with Glucokinase (GK) activator at 50 mg/kg body weight following a two hour fasting period. Blood glucose determinations are made five times during the six hour post-dose study period.
Mice (n=6) are weighed and fasted for a two hour period prior to oral treatment. GK activators are formulated at 6.76 mg/ml in Gelucire vehicle (Ethanol:Gelucire44/14:PEG400q.s. 4:66:30 v/w/v. Mice are dosed orally with 7.5 μL formulation per gram of body weight to equal a 50 mg/kg dose. Immediately prior to dosing, a pre dose (time zero) blood glucose reading is acquired by snipping off a small portion of the animals tail (˜1 mm) and collecting 15 μL blood into a heparinized capillary tube for analysis. Following GK activator administration, additional blood glucose readings are taken at 1, 2, 4, and 6 hours post dose from the same tail wound. Results are interpreted by comparing the mean blood glucose values of six vehicle treated mice with six GK activator treated mice over the six hour study duration.

SMILES	glucokinase activator in vivo activity
CS(=O)(=O)c1ccc([C@@H](CC2CCCC2)C(=O)Nc2nc3ccccc3s2)cc1Cl [Example 19, N-Benzothiazol-2-yl-2(R)-(3-chloro-4-methanesulfonyl-phenyl)-3-cyclopentyl-propionamide]	excellent glucokinase activator in vivo activity
CS(=O)(=O)c1ccc(C(CC2CCCC2)C(=O)Nc2nc3ccccc3[nH]2)cc1Cl (stereo not drawn) [Example 20, N-(1H-Benzoimidazol-2-yl)-2-(3-chloro-4-methanesulfonyl-phenyl)-3-cyclopentyl-propionamide]	excellent glucokinase activator in vivo activity
CS(=O)(=O)c1ccc(C(CC2CCCC2)C(=O)Nc2ccc3ccccc3n2)cc1Cl (stereo not drawn) [Example 22, 2-(3-Chloro-4-methanesulfonyl-phenyl)-3-cyclopentyl-N-quinolin-2-yl-propionamide]	excellent glucokinase activator in vivo activity
